The target in series [1] is ALK tyrosine kinase receptor (Homo sapiens, UniProt Q9UM73). Briefly: Inhibition of human recombinant ALK assessed as phosphorylated product using PLC-gamma/GST substrate by modified ELISA method. Background: ELISA stands for enzyme-linked immunosorbent assay.
The target in a further series is Insulin receptor (Homo sapiens, UniProt P06213). Briefly: Inhibition of IR.
Series [2] can be described thus: Half-life in mouse liver microsomes. In kind it is ADME, Microsome.
Series [3] can be described thus: Half-life in rat liver microsomes. It is filed as ADME, Microsome.
Series [4] is described as follows: Half-life in human liver microsomes. It is filed as ADME, Microsome. (Liver microsomes are a subcellular fraction often used to study metabolism.)
Another series addresses T1, Cytochrome P450 1A2 (Homo sapiens, UniProt P05177).
T1 sequence (P05177 whole entry): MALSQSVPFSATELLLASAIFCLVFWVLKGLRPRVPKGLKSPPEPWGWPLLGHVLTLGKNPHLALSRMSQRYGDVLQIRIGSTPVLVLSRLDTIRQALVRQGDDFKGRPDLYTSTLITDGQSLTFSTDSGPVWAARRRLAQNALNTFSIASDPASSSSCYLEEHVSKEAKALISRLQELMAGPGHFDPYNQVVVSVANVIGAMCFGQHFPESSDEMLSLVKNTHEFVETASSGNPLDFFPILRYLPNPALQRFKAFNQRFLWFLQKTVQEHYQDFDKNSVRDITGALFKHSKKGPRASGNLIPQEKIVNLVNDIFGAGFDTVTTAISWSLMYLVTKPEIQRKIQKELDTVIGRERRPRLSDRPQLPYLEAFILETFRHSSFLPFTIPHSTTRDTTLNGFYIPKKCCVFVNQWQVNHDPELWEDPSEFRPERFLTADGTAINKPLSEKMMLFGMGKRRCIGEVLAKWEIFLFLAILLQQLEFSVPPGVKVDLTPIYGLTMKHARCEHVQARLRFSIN
Briefly: Inhibition of CYP1A2. In kind it is ADME.

The target in another series is Cytochrome P450 2C9 (Homo sapiens, UniProt P11712). Briefly: Inhibition of CYP2C9. In kind it is ADME.
Cytochrome P450 2C9, sequence (P11712 whole entry): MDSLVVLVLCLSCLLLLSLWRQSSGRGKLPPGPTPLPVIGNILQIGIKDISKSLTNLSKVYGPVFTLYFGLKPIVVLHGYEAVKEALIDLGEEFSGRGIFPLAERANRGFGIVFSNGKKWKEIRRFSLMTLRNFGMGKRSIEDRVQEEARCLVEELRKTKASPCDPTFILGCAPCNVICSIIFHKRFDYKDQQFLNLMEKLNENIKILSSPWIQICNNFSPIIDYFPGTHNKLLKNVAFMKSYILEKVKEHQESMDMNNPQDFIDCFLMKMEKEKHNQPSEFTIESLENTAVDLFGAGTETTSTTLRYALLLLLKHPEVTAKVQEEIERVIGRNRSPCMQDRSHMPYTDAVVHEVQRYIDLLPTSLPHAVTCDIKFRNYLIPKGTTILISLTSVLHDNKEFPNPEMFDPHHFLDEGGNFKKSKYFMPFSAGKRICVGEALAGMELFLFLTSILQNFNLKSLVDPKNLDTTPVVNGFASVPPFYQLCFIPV
A further series concerns the target Cytochrome P450 2C19 (Homo sapiens, UniProt P33261). Description: Inhibition of CYP2C19. It is filed as ADME.
The target of the next series is Cytochrome P450 2D6 (Homo sapiens, UniProt P10635). Briefly: Inhibition of CYP2D6. It is filed as ADME.
Cytochrome P450 2D6, sequence (P10635 whole entry): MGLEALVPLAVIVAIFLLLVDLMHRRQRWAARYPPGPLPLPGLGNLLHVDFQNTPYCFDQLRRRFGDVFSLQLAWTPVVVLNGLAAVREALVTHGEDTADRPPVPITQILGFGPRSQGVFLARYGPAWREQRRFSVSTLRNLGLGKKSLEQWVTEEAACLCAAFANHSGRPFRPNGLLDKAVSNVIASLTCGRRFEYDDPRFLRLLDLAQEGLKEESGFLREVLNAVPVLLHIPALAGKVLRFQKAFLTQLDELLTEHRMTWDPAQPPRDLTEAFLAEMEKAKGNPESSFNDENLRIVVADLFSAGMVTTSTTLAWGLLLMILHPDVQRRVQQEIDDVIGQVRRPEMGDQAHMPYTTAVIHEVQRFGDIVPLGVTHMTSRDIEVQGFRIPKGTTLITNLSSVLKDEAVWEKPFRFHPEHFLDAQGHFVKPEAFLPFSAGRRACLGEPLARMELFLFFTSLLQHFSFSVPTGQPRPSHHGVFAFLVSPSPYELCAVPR
In the next series the target is Cytochrome P450 3A4 (Homo sapiens, UniProt P08684). Briefly: Inhibition of CYP3A4. In kind it is ADME.
Cytochrome P450 3A4, sequence (P08684 whole entry): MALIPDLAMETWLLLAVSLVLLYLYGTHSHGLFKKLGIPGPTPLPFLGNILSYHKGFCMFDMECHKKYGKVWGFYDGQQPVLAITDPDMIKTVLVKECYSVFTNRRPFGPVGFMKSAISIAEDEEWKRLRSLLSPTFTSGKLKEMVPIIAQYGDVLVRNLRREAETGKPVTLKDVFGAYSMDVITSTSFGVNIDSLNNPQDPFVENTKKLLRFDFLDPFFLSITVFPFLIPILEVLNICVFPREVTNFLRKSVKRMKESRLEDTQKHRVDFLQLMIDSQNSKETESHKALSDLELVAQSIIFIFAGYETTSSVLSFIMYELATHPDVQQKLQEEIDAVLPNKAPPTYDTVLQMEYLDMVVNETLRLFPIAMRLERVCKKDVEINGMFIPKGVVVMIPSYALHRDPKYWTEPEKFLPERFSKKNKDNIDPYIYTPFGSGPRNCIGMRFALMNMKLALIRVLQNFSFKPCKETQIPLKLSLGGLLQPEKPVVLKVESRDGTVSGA
Series [5] is described as follows: Oral bioavailability in Sprague-Dawley rat. Particulars: in vivo. In kind it is ADME, organism-based.
Series [6] is described as follows: Half-life in iv dosed Sprague-Dawley rat. It is filed as ADME, organism-based. Particulars: in vivo.
The nature of series [7]: Clearance in iv dosed Sprague-Dawley rat. In kind it is ADME, organism-based. Particulars: in vivo.

ALK tyrosine kinase receptor, sequence (Q9UM73 whole entry): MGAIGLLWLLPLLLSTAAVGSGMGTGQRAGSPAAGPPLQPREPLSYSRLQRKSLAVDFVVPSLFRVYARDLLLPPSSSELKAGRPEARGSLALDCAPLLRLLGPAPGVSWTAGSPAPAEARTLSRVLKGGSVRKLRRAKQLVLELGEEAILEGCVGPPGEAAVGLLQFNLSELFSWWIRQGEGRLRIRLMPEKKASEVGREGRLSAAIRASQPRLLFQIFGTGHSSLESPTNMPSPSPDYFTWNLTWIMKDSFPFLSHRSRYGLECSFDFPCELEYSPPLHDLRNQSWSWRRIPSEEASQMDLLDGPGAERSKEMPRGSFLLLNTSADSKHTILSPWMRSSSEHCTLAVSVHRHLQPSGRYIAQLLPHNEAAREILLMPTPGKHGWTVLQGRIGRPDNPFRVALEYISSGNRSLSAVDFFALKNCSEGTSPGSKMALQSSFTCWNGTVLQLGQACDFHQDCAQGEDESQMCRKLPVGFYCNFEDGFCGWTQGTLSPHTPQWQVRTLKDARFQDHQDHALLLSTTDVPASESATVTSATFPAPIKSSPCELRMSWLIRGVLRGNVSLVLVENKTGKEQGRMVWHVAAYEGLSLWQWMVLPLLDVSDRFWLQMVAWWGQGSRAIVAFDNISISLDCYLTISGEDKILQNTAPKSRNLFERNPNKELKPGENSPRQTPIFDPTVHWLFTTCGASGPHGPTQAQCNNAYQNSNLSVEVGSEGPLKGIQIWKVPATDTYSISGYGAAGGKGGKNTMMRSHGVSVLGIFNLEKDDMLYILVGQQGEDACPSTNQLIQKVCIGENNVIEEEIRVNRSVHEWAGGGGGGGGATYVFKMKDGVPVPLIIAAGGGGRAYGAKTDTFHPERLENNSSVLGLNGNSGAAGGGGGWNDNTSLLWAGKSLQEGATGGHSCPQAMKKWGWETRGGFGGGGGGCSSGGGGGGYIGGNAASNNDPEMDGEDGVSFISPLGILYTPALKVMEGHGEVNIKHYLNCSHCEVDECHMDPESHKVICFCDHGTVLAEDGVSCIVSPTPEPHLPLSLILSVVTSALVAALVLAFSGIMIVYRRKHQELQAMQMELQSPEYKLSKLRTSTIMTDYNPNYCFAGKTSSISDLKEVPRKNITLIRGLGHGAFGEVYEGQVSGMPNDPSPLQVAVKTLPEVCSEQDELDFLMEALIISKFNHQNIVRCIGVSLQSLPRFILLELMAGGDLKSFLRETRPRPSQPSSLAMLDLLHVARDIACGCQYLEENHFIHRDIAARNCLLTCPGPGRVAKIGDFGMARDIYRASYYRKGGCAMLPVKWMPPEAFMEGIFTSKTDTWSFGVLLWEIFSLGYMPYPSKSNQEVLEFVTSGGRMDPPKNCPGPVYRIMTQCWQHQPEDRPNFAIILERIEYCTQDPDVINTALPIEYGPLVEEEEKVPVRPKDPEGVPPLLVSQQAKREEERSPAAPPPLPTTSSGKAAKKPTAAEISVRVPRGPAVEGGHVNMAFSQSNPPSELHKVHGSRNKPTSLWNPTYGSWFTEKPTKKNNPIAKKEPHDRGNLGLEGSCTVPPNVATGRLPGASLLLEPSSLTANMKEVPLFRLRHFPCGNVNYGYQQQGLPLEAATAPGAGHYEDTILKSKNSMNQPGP
Insulin receptor, sequence (P06213 28-758 limits assumed): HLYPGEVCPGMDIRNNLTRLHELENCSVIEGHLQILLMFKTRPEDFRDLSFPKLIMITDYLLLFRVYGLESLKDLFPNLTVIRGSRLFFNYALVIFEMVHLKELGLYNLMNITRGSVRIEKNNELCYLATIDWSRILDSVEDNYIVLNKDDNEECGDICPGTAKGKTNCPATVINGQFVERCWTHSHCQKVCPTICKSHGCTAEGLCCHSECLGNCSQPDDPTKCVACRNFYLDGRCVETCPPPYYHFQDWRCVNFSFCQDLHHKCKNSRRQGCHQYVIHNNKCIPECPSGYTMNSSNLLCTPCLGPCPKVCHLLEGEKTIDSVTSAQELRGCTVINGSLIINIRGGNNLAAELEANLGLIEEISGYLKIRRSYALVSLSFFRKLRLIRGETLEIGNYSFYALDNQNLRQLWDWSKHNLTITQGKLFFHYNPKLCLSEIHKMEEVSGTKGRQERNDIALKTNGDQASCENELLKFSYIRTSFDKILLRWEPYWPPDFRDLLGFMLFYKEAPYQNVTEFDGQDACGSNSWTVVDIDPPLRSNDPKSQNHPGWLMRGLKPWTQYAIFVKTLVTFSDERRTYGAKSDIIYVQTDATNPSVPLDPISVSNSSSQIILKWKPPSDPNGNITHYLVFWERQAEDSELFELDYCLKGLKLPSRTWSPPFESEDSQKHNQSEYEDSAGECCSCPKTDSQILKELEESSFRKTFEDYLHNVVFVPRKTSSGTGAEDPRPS
Insulin receptor, sequence (P06213 763-1382 limits assumed): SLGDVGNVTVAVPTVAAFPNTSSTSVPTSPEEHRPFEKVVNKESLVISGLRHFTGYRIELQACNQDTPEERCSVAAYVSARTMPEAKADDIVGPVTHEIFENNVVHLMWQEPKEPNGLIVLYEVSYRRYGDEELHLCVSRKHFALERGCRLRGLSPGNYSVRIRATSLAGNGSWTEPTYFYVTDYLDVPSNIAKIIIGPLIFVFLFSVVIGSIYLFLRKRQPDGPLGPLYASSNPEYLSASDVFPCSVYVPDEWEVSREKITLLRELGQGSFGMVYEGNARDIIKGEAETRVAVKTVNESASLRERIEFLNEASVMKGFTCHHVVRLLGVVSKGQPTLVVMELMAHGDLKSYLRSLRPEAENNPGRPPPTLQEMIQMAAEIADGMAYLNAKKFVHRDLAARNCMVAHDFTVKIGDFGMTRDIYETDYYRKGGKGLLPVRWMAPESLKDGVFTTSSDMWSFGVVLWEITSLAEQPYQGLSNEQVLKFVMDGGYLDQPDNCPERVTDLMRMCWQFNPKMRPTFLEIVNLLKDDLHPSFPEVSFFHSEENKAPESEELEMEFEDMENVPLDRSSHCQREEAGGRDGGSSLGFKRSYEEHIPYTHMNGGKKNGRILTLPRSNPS
Cytochrome P450 2C19, sequence (P33261 whole entry): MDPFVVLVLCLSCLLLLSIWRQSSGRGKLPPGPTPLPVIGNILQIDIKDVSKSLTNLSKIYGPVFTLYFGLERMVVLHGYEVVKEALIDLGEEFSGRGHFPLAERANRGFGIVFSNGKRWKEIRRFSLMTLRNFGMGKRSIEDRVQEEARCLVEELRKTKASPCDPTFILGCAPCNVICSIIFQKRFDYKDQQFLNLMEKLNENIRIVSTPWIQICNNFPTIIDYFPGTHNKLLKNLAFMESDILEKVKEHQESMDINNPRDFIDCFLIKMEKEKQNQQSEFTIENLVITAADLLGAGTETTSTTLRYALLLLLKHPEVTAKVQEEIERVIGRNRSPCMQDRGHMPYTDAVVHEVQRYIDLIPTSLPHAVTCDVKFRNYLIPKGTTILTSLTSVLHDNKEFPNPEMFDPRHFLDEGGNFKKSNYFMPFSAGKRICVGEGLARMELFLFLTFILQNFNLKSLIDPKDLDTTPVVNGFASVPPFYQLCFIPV

Usually IC50 stands for the concentration needed to halve the response being measured. The term half-life denotes the time in which the quantity being followed falls by half. A high value points to slow loss. Take `CN1CCN(c2ccc(Nc3ncc4ccc(-c5ccccc5N(C)S(C)(=O)=O)n4n3)cc2)CC1`: the IC50 is 0.007 µM in series [1]; 0.366 µM against Insulin receptor; more than 30 µM on Cytochrome P450 1A2; more than 30 µM against Cytochrome P450 2C9; more than 30 µM against Cytochrome P450 2C19; more than 30 µM at Cytochrome P450 2D6. Further, the IC50 against Cytochrome P450 3A4 turned out to be 14.6 µM. Also, the half-life in series [2] turned out to be 30 min; in series [3] it was 21 min; in series [4], 40 min.
Take `COc1cc(Nc2ncc3ccc(-c4ccccc4)n3n2)cc(OC)c1OC`: the IC50 in series [1] was 0.212 µM; against Insulin receptor, 0.295 µM.
The like results for `c1ccc(-c2ccc3cnc(Nc4ccc(N5CCOCC5)cc4)nn23)cc1` were, in that order, more than 2 µM and 0.194 µM.
For the compound `CN1CCN(c2ccc(Nc3ncc4ccc(-c5ccccc5)n4n3)cc2)CC1`, the IC50 in [1] turned out to be 0.048 µM; on Insulin receptor, 0.035 µM.
On to `COCCN1CCc2ccc(Nc3ncc4ccc(-c5ccccc5)n4n3)cc2CC1`, for which the IC50 in series [1] is 0.038 µM; at Insulin receptor, 0.019 µM.
As a reminder, the bioavailability is dose-corrected exposure relative to a reference, in per cent. Low values mean little systemic uptake, high ones much systemic uptake. By clearance is commonly meant the volume of plasma or blood freed of the substance per unit of time. Take `COc1ccccc1-c1ccc2cnc(Nc3ccc(N4CCN(C)CC4)cc3)nn12`: the IC50 was 0.02 µM in [1]; 0.123 µM on Insulin receptor; more than 30 µM against Cytochrome P450 1A2; more than 30 µM at Cytochrome P450 2C9; more than 30 µM at Cytochrome P450 2C19; more than 30 µM against Cytochrome P450 2D6. On Cytochrome P450 3A4, this compound showed an IC50 of 9.4 µM. In addition, the half-life in series [2] is 8 min; in series [3], 14 min; in [4], 40 min; in series [6], 30 min. This compound also gave a bioavailability in series [5] of 4%. Also, the clearance in [7] was found to be 3.6 L/h/kg.
Turning to `CN1CCN(c2ccc(Nc3ncc4ccc(-c5ccccc5C(N)=O)n4n3)cc2)CC1`, the IC50 in [1] amounted to 0.726 µM; against Insulin receptor, 0.326 µM.
For `CN1CCN(c2ccc(Nc3ncc4ccc(-c5ccccc5S(C)(=O)=O)n4n3)cc2)CC1`, in that order: 0.883 µM and more than 2 µM.

The record behind these values is ChEMBL document CHEMBL1821719, “2,7-disubstituted-pyrrolo[2,1-f][1,2,4]triazines: new variant of an old template and application to the discovery of anaplastic lymphoma kinase (ALK) inhibitors with in vivo antitumor activity” (J Med Chem, 2011).
